# Assay results as given in ChEMBL document CHEMBL1201862, “PubChem BioAssay data set” (2004).
# The source made the active and inactive calls.
# Legend:
# [1] = target: T1, Carboxy-terminal domain RNA polymerase II polypeptide A small phosphatase 1 (Homo sapiens, UniProt Q9GZU7); experiment: inhibitors of CTDSP1, concentration-response testing, biochemical assay, absorbance-based, actives from ultra-high-throughput screening (AID 540297); format: functional
# T1 sequence (Q9GZU7 whole entry): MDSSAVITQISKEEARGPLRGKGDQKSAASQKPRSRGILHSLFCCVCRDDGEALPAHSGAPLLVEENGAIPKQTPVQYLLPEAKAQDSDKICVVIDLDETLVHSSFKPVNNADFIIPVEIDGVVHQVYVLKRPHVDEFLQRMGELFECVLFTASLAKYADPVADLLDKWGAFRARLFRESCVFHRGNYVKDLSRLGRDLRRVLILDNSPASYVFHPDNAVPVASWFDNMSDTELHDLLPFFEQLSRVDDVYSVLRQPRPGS
# [2] = P. falciparum Dd2 growth inhibitors, dose response, SYBR Green, cherry-picked samples (AID 1159567); format: functional, cell-based
# cells [3] = format: functional, cell-based
# cells [4] = format: functional, cell-based; remark: listed apart in the source
# [5] = target: T2, RNA-binding protein pos-1 (Caenorhabditis elegans, UniProt G5EF15); experiment: inhibitors of POS-1/mex-3 RNA binding, dose response, biochemical, fluorescence polarization (AID 1964);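 note: purified POS-1 fused to maltose binding protein made in E. coli; potency of compounds blocking POS-1 binding to fluorescent RNA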
# T2 sequence (G5EF15 whole entry): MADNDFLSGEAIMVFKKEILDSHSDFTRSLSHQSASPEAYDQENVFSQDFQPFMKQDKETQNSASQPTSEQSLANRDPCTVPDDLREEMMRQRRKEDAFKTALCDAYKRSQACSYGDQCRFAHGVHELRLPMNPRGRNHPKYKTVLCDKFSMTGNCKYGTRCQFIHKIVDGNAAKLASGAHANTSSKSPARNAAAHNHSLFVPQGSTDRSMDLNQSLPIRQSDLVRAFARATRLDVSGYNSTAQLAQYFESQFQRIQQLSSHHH
# [6] = target: Glucose-6-phosphate 1-dehydrogenase (Homo sapiens, UniProt P11413); experiment: human G6PD enzyme inhibitors, dose response, selectivity assay for P. falciparum G6PD inhibitor project, biochemical, fluorescence (AID 504792); format: functional
# [7] = target: T3, Zinc finger protein mex-5 (Caenorhabditis elegans, UniProt Q9XUB2); experiment: MEX-5/TCR-2 RNA interaction inhibitors, dose response, biochemical, C. elegans, fluorescence polarization (AID 1960)
# T3 sequence (Q9XUB2 whole entry): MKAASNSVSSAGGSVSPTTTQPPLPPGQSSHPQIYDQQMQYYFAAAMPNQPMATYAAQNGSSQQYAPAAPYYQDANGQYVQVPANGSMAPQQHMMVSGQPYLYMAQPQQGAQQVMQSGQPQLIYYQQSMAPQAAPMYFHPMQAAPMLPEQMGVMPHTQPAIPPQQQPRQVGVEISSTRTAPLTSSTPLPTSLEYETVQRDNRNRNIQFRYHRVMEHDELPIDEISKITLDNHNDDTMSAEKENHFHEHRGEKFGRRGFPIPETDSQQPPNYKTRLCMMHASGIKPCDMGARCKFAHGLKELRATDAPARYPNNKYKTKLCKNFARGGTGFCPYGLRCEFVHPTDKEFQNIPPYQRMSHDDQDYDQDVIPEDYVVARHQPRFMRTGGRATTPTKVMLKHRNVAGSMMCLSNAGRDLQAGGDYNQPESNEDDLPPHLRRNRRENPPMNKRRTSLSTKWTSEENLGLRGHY
# [8] = target: T4, Mannose-6-phosphate isomerase (Homo sapiens, UniProt P34949); experiment: human PMI inhibitors, high substrate, primary screen, biochemical, fluorescence intensity, high mannose 6-phosphate (AID 1220)
# T4 sequence (P34949 whole entry): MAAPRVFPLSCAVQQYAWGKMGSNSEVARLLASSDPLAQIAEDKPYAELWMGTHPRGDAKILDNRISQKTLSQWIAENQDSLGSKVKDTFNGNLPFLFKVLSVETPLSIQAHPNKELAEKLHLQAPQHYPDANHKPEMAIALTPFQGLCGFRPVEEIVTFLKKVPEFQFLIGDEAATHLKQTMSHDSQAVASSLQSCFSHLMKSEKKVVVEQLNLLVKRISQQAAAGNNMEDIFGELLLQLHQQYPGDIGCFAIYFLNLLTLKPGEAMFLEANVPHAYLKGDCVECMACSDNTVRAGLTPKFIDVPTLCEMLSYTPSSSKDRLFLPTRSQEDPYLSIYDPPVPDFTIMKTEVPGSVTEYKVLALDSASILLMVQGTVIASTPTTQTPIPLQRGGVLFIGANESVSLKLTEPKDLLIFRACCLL
# [9] = HEp-2 cell cytotoxicity, dose response, cytotoxicity control for RSV inhibitor project, HTS (AID 2410); format: functional; conditions: human respiratory syncytial virus
# Protein RecA = target: T5, Protein RecA (Mycobacterium tuberculosis, UniProt P9WHJ3); experiment: Fluorescence Cell-Free Homogeneous Dose Retest to Identify Inhibitors of RecA-Intein Splicing Activity. [Related pubchem assays (depositor defined):AID2097, AID2223, AID489010, AID492950]; format: functional
# T5 sequence (P9WHJ3 whole entry): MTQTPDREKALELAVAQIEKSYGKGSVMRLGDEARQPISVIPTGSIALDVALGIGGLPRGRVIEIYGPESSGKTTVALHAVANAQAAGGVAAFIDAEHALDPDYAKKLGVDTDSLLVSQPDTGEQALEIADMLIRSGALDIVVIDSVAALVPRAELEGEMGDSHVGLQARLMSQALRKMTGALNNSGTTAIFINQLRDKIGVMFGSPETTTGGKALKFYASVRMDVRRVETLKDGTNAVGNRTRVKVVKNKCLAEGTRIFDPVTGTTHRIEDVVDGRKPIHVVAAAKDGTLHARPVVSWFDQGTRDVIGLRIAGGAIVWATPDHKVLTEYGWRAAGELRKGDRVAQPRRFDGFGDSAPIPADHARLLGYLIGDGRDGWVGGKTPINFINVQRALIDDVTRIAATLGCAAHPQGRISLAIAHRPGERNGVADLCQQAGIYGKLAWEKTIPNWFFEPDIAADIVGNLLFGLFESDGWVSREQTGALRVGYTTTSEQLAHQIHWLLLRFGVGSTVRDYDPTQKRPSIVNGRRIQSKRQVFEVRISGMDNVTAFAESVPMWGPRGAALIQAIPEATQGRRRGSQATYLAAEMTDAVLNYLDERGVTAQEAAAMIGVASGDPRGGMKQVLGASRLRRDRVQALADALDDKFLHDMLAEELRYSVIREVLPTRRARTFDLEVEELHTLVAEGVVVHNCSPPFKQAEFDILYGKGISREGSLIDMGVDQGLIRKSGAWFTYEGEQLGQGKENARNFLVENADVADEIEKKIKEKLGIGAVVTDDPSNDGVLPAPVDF
# Streptococcus = experiment: Group A Streptococcus viability loss, dose response, counter-screen for streptokinase expression inhibitor project, luminescence, BacTiterGlo (AID 1915); format: functional, organism-based;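 note: potency for reduction of bacterial viability or growth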
# Streptokinase A = target: T6, Streptokinase A (Streptococcus pyogenes serotype M1, UniProt P10520); experiment: S. pyogenes streptokinase expression inhibitors, potency, dose response, plasminogen activation absorbance, OD405 (AID 1914); format: functional, Streptococcus pyogenes M1 GAS;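 note: secreted streptokinase activity via plasminogen activation per viability signal from cell pellet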
# T6 sequence (P10520 whole entry): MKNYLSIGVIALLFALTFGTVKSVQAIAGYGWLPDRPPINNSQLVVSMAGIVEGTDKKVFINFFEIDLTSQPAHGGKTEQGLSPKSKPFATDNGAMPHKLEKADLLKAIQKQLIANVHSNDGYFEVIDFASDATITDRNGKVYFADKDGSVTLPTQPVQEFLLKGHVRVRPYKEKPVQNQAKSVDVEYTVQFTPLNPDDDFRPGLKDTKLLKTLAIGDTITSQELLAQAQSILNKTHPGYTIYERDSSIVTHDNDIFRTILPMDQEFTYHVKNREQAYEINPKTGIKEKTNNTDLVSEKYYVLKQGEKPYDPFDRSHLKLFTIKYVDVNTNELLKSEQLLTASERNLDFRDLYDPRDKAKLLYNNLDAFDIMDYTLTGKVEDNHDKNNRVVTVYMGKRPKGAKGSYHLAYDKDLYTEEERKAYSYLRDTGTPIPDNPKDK
# [10] = target: T7, Replicative DNA helicase DnaB (Mycobacterium tuberculosis, UniProt P9WMR3); experiment: DnaB intein splicing inhibitors, dose response, biochemical, cell-free fluorescence (AID 449749); format: functional
# T7 sequence (P9WMR3 whole entry): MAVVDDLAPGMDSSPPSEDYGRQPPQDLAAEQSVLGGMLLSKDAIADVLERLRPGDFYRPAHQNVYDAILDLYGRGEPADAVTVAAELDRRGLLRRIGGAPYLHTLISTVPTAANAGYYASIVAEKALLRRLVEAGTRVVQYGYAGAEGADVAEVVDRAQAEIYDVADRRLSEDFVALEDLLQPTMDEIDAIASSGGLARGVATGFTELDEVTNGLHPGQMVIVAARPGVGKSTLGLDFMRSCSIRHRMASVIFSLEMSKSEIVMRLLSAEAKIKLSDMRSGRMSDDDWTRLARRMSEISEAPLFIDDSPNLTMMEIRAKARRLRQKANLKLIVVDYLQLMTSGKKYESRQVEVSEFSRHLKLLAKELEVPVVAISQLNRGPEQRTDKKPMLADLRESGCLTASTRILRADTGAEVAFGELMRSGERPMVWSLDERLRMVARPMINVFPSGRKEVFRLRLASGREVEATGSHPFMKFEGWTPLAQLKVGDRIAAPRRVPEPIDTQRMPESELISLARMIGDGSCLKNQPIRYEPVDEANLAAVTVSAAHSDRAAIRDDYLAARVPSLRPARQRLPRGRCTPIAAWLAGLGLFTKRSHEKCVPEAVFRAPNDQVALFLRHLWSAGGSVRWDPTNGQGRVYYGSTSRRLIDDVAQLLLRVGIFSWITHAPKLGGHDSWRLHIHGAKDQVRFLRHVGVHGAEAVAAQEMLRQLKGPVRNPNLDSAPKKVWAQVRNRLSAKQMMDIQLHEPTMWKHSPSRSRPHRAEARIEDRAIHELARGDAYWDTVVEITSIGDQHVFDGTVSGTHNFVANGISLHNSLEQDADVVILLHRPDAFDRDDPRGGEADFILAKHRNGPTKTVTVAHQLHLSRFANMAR
# [11] = tested on: Streptococcus sp. 'group A'; experiment: growth inhibition of control SK(-) GAS strain, dose response, counter-screen for streptokinase expression inhibitor project, luminescence, kanamycin, BacTiterGlo, confirmation (AID 1900); format: functional, organism-based
# Chain of Glucose-6-phosphate 1-dehydrogenase (P11413 whole entry): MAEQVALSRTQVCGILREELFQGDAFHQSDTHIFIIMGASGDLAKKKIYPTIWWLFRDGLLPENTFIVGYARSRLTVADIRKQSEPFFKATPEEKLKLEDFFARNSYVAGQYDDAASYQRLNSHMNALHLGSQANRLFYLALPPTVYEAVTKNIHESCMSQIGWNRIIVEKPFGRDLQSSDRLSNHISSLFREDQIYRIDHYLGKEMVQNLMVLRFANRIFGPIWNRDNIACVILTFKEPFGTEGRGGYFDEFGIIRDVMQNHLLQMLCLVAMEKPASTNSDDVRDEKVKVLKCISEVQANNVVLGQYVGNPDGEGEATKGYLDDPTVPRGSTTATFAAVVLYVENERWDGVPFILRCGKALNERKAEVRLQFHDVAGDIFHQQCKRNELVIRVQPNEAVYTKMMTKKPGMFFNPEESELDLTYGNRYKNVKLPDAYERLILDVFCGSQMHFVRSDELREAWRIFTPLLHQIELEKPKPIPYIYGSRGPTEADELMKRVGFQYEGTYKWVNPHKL
smiles,measurement,setting,value
O=C1N=C(Nc2ccc(Cl)cc2)/C(=C/c2ccco2)S1,IC50,[1],1.86 µM (active)
C/C=C/c1ccc([C@@H]2[C@H](CO)N(CC3CC3)C23CN(C(=O)c2ccc4c(c2)OCO4)C3)cc1,AC50,[2],4.44 µM (active)
Cc1cc(/C=N/N2CCN(C)CC2)c(C)n1-c1ccc(Cl)cc1,EC50,cells [3],> 350 µM (not active)
same,EC50,cells [4],> 350 µM (not active)
Cc1cc(C(=O)O)ccc1-n1c(C)cc(C=C2C(=O)c3ccccc3C2=O)c1C,EC50,[5],> 300 µM (not active)
same,IC50,[6],> 80 µM (inactive)
same,EC50,[7],> 300 µM (not active)
CCC(=O)N1[C@H](CO)[C@@H](c2ccccc2-c2cccc(C)c2)[C@@H]1C#N,AC50,[2],> 42 µM (inactive)
N#Cc1cccc(-c2ccc3c(c2)[C@@H]2[C@@H](CCN2Cc2cncnc2)[C@H](CO)N3)c1,AC50,[2],6.32 µM (active)
COc1ccc(OC)c(CNC(=O)C2CCCN(S(=O)(=O)N3CCC(C)CC3)C2)c1 (stereo not given),EC50,cells [3],> 350 µM (not active)
same,EC50,cells [4],> 350 µM (not active)
COc1ccccc1C#Cc1ccc([C@@H]2[C@H](C#N)N(C(=O)C3CCCC3)[C@H]2CO)cc1,AC50,[2],5.17 µM (active)
COC(=O)Nc1ccc(=O)n(Cc2c(Cl)cccc2Cl)c1,EC50,cells [3],> 350 µM (not active)
same,EC50,cells [4],> 350 µM (not active)
NS(=O)(=O)c1ccc(NC(=O)c2ccc(CSc3ccccc3)o2)cc1,EC50,cells [3],> 350 µM (not active)
same,EC50,cells [4],> 350 µM (not active)
COc1cc(NC(=S)Nc2cccnc2)cc(OC)c1,IC50,[8],> 50 µM (not active)
COc1ccc(-n2c(=S)[nH]c3sc4c(c3c2=O)CCc2ccccc2-4)cc1,IC50,[8],25.7 µM (active)
CCCC#Cc1ccc2c(c1)[C@@H]1[C@@H](CCN1S(=O)(=O)c1ccccc1C)[C@@H](CO)N2,AC50,[2],7.51 µM (active)
CC(C)(C)C(=O)O/N=C1/C(=O)N(c2ccccc2)c2ccccc21,IC50,[1],7.51 µM (active)
same,CC50,[9],26.5 µM (active)
COc1ccc(NC(=O)CSc2nc3c(c(-c4cccs4)c2C#N)CN(C)CC3)cc1OC,IC50,[8],> 50 µM (not active)
C[N+]1(C)CC2([N+](=O)[O-])CC=C(Oc3ccccc3)C([N+](=O)[O-])(C2)C1 (stereo not given),IC50,[1],6.82 µM (active)
Cc1ccc(C)c(NC(=O)CN(C)C(=O)Cc2coc3cc(C)c(C)cc23)c1,EC50,cells [3],> 350 µM (not active)
same,EC50,cells [4],> 350 µM (not active)
COc1cccc(CN2C[C@@H]3N[C@H](C2)[C@H]3c2ccc(-c3ccncc3)cc2)c1,AC50,[2],7.31 µM (active)
O=C(Nc1cccc(S(=O)(=O)NC2=NCCCCC2)c1)C1COc2ccccc2O1 (stereo not given),IC50,[1],5.75 µM (active)
CN1c2ccccc2C(C)(C)C12C=Nc1c(ccc3ccccc13)O2 (stereo not given),EC50,Protein RecA,14.4 µM (active)
same,EC50,Streptococcus,> 150 µM (not active)
same,EC50,Streptokinase A,24 µM (active)
same,IC50,[8],> 50 µM (not active)
same,AC50,[10],32.4 µM (active)
same,EC50,[11],3.92 µM (active)
Cc1ccc(NC(=O)COc2ccc(/C=N\NC(=O)c3cccnc3)cc2)cc1C,IC50,[1],10 µM (active)
CCOC(=O)N1CCC(N2Cc3cccc(C(=O)NCc4ccc5c(c4)OCO5)c3C2=O)CC1,IC50,[1],15 µM (active)
